We go through 4 molecules from patent US8993622B2, “Antiviral compounds” (Eirium AB, priority 2010, dated 2015).

One data set deals with Ad5. Description: microbe, parasite or virus in culture. The data set is classed as cell-based, human adenovirus. The following applies: for inhibition at 5 µM: A549, read-out: % Inh. at 5 μM; for inhibition at 15 µM: A549, read-out: % Inh. at 15 μM.
The test system of a further data set is cells. The experiment in a line: Cellular toxicity of select compounds (% dead cells, CC50). The data set is classed as cell-based. The following applies: 24 h.
Assay in data set [1]: as above
The data set is classed as cell-based. The following applies: conclusions.

For data set [2], the system named is coxsackievirus A24 variant (CVA24v). The experiment in a line: Coxsackievirus fluorescent focus assay in HCE cells. The data set is classed as cell-based. Details: key: +++: No visible fluorescence was observed; ++: some infected cells were detected. The following applies: 18 h. The protocol:
Approximately 2×10^5 human corneal epithelial (HCE) cells were plated in 24-well plates the day prior infection. On the day of infection the media was removed and was replaced with media containing 70 virus particles of CVA24v per cell and serial dilutions of compound 35j, ranging from 50- to 6.25 μM. After 18 h of incubation at 37° C. in 5% CO2, the cells were fixed using ice-cold 100% methanol for 5 min. Thereafter, the cells were incubated with a monoclonal mouse anti-VP1 structural protein antibody (clone 5-D8/1, DakoCytomation) diluted 1:200 in PBS, for 1 h in RT. The cells were then washed with PBS and incubated with FITC labeled anti-mouse secondary antibody (DakoCytomation), diluted 1:100 for 1 h, RT, in the dark. Further, unbound antibody was washed away in PBS and the cells were examined in fluorescent microscope.

As usually defined, the EC50 is the concentration at which the effect is half-maximal. For orientation: CC50 means the concentration that lowers cell viability or growth by half.

Where two headings read alike, the source gives them in different places.

In turn, `O=C(Nc1ccc(Cl)cc1C(=O)Nc1ccccc1C(=O)O)c1ccccc1F` [Compound 35g, 2-[5-chloro-2-(2-fluorobenzoylamino)-benzoylamino]benzoic acid] gave an EC50 in the data set with Ad5 (unidentified adenovirus, A549) of 680 nM. Also, in the data set with Ad5 (unidentified adenovirus), the inhibition at 5 µM is 89 ± 2% and the inhibition at 15 µM was found to be 91 ± 2%. Also, in the data set on cells, the “Toxicity at 30 μM (% dead cells after 24 h)” value was 11 ± 7% and the “Toxicity at 60 μM (% dead cells after 24 h)” value was determined as 24 ± 9%.

In turn, `COc1ccc(C(=O)Nc2ccccc2C(=O)O)c(NC(=O)c2ccccc2F)c1` [Compound 35h, 2-[4-methoxy-2-(2-fluorobenzoylamino)-benzoylamino]benzoic acid] had an EC50 in the data set on Ad5 (unidentified adenovirus, A549) of 1500 nM. In the data set on Ad5 (unidentified adenovirus), the inhibition at 5 µM is 92 ± 3% and the inhibition at 15 µM amounted to 89 ± 6%. Besides, in the data set with cells, the “Toxicity at 30 μM (% dead cells after 24 h)” value turned out to be 10 ± 15% and the “Toxicity at 60 μM (% dead cells after 24 h)” value turned out to be 18 ± 15%.

On to `COc1ccc(NC(=O)c2ccccc2F)c(C(=O)Nc2ccccc2C(=O)O)c1` [Compound 35i, 2-[5-methoxy-2-(2-fluorobenzoylamino)-benzoylamino]benzoic acid], for which the response with Ad5 (unidentified adenovirus, A549) was half-maximal at 1400 nM (EC50). Moreover, in the data set with Ad5 (unidentified adenovirus), the inhibition at 5 µM was 91 ± 6% and the inhibition at 15 µM came out at 97 ± 1%. In the data set on cells, the “Toxicity at 30 μM (% dead cells after 24 h)” value is recorded as 18 ± 12% and the “Toxicity at 60 μM (% dead cells after 24 h)” value amounted to 28 ± 12%.

Consider `O=C(Nc1cc(F)c(F)cc1C(=O)Nc1ccccc1C(=O)O)c1ccccc1F` [Compound 35j, 2-[4,5-difluoro-2-(2-fluorobenzoylamino)-benzoylamino]benzoic acid], for which the toxicity/activity selectivity index in the data set with Ad5 (CC50/EC50) is reported as 890. For the same molecule, the EC50 amounted to 300 nM in the data set with Ad5 (Human adenovirus sp., A549, read-out: EC50-value) and 270 nM in the data set on Ad5 (unidentified adenovirus, A549). The inhibition at 5 µM in the data set with Ad5 (unidentified adenovirus) is 94 ± 3%. Moreover, in the data set with Ad5 (unidentified adenovirus), the inhibition at 15 µM came to 93 ± 2%. Besides, the “Toxicity at 30 μM (% dead cells after 24 h)” value in the data set on cells worked out at 6 ± 4%. Besides, the “Toxicity at 60 μM (% dead cells after 24 h)” value with cells is listed as 16 ± 9%. Further, the CC50 in data set [1] was found to be 240000 nM. The “Relative inhibition of CVA24v” value in data set [2] (6.25 μM) is “++”; in data set [2] (12.5 μM), “++”; in data set [2] (25 μM), “+++”; in data set [2] (50 μM) it was “+++”.
